Assay results published in PubChem BioAssay AID248 (DTP/NCI, 2004).
Inconclusive results and toxic doses are left out. Rule as the data show it: active = T/C of 150% or more; inactive = T/C below 125%.

Test system: L1210 leukemia ip in BDF1 mice, survival T/C
Assay: NCI In Vivo Anticancer Drug Screen. Data for tumor model L1210 Leukemia (intraperitoneal) in B6D2F1 (BDF1) mice
Conditions: endpoint: mean survival time, higher = longer survival
Summary of the method: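 Transplantable tumor model; survival measured in treated vs vehicle control mice. Value = treated/control.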

[1] = dose: 75.0 mg/kg/injection, schedule: Q01DX001 (ip), vehicle: saline
[2] = dose: 150.0 mg/kg/injection, schedule: Q01DX001 (ip), vehicle: saline
[3] = dose: 50.0 mg/kg/injection, schedule: Q01DX009 (ip), vehicle: Klucel (hydroxypropylcellulose) (HPC)
[4] = dose: 100.0 mg/kg/injection, schedule: Q01DX009 (ip), vehicle: Klucel (hydroxypropylcellulose) (HPC)
[5] = dose: 150.0 mg/kg/injection, schedule: Q01DX001 (ip), vehicle: Klucel (hydroxypropylcellulose) (HPC)
[6] = dose: 200.0 mg/kg/injection, schedule: Q01DX009 (ip), vehicle: Klucel (hydroxypropylcellulose) (HPC)
[7] = dose: 100.0 mg/kg/injection, schedule: Q04DX002 (ip), vehicle: saline with Tween-80
[8] = dose: 200.0 mg/kg/injection, schedule: Q04DX002 (ip), vehicle: saline with Tween-80
[9] = dose: 400.0 mg/kg/injection, schedule: Q04DX002 (ip), vehicle: saline with Tween-80
[10] = dose: 100.0 mg/kg/injection, schedule: Q01DX001 (ip), vehicle: carboxymethylcellulose (CMC)
[11] = dose: 200.0 mg/kg/injection, schedule: Q01DX001 (ip), vehicle: carboxymethylcellulose (CMC)
[12] = dose: 400.0 mg/kg/injection, schedule: Q01DX001 (ip), vehicle: carboxymethylcellulose (CMC)
[13] = dose: 100.0 mg/kg/injection, schedule: Q01DX001 (ip), vehicle: Klucel (hydroxypropylcellulose) (HPC)
[14] = dose: 100.0 mg/kg/injection, schedule: Q04DX003 (ip), vehicle: saline with Tween-80
[15] = dose: 400.0 mg/kg/injection, schedule: Q01DX009 (ip), vehicle: Klucel (hydroxypropylcellulose) (HPC)
[16] = dose: 75.0 mg/kg/injection, schedule: Q01DX009 (ip), vehicle: Klucel (hydroxypropylcellulose) (HPC)
[17] = dose: 150.0 mg/kg/injection, schedule: Q01DX009 (ip), vehicle: Klucel (hydroxypropylcellulose) (HPC)
[18] = dose: 300.0 mg/kg/injection, schedule: Q01DX009 (ip), vehicle: Klucel (hydroxypropylcellulose) (HPC)

Measured: T/C

CCCCCSc1nc(N)nc2nc[nH]c12
inactive: dose: 50.0 mg/kg/injection, schedule: Q01DX Z (ip), vehicle: methylcellulose (MC) 117 % of control | [1] 106 % of control | dose: 135.0 mg/kg/injection, schedule: Q01DX009 (ip), vehicle: saline 98 % of control | [2] 109 % of control | dose: 200.0 mg/kg/injection, schedule: Q01DX009 (ip), vehicle: saline 104 % of control | dose: 200.0 mg/kg/injection, schedule: Q01DX Z (ip), vehicle: methylcellulose (MC) 104 % of control | dose: 300.0 mg/kg/injection, schedule: Q01DX001 (ip), vehicle: saline 101 % of control | dose: 300.0 mg/kg/injection, schedule: Q01DX009 (ip), vehicle: saline 119 % of control

O=C(Nc1ccc(Cl)cc1Cl)Nc1ccc(Cl)cc1Cl
inactive: dose: 100.0 mg/kg/injection, schedule: Q04DX002 (ip), vehicle: Klucel (hydroxypropylcellulose) (HPC) 91 % of control | dose: 200.0 mg/kg/injection, schedule: Q04DX002 (ip), vehicle: Klucel (hydroxypropylcellulose) (HPC) 94 % of control

Cc1ccc(OC/C=C/CSc2ccc(Br)cc2)cc1
inactive: [3] 103 % of control | dose: 75.0 mg/kg/injection, schedule: Q01DX001 (ip), vehicle: Klucel (hydroxypropylcellulose) (HPC) 106 % of control | [4] 100 % of control | [5] 104 % of control | [6] 102 % of control | dose: 300.0 mg/kg/injection, schedule: Q01DX001 (ip), vehicle: Klucel (hydroxypropylcellulose) (HPC) 98 % of control

O=C1/C(=C/c2ccccc2)CCC/C1=C\c1ccccc1
inactive: [7] 92 % of control | [8] 92 % of control | [9] 95 % of control

NS(=O)(=O)c1ccc(N=NN2CCOCC2)cc1
inactive: [7] 115 % of control | [8] 108 % of control | [9] 115 % of control

O=C(Nc1cccc(Cl)c1)Nc1ccc(Br)c(C(F)(F)F)c1
inactive: dose: 50.0 mg/kg/injection, schedule: Q01DX001 (ip), vehicle: carboxymethylcellulose (CMC) 100 % of control | [10] 94 % of control | [11] 96 % of control | [12] 94 % of control

CCCC1C2=C(C(=O)OC2=O)C2C(CC)CC3=C(C(=O)OC3=O)C12 (stereo not drawn)
inactive: dose: 12.5 mg/kg/injection, schedule: Q01DX001 (ip), vehicle: Klucel (hydroxypropylcellulose) (HPC) 90 % of control | dose: 25.0 mg/kg/injection, schedule: Q01DX001 (ip), vehicle: Klucel (hydroxypropylcellulose) (HPC) 94 % of control | dose: 50.0 mg/kg/injection, schedule: Q01DX001 (ip), vehicle: Klucel (hydroxypropylcellulose) (HPC) 94 % of control | dose: 56.25 mg/kg/injection, schedule: Q04DX003 (ip), vehicle: Klucel (hydroxypropylcellulose) (HPC) 97 % of control | [13] 95 % of control | dose: 112.5 mg/kg/injection, schedule: Q04DX003 (ip), vehicle: Klucel (hydroxypropylcellulose) (HPC) 95 % of control | [5] 89 % of control | dose: 225.0 mg/kg/injection, schedule: Q01DX001 (ip), vehicle: Klucel (hydroxypropylcellulose) (HPC) 97 % of control | dose: 225.0 mg/kg/injection, schedule: Q04DX003 (ip), vehicle: Klucel (hydroxypropylcellulose) (HPC) 94 % of control

CC[N+]1(Cc2ccccc2)CC2(CCCCC2)ON2C1CC(C)C2(C)C (stereo not drawn)
inactive: [14] 91 % of control

CC1=NNC(=O)CC1
inactive: dose: 100.0 mg/kg/injection, schedule: Q04DX003 (ip), vehicle: saline 102 % of control | dose: 200.0 mg/kg/injection, schedule: Q04DX003 (ip), vehicle: saline 104 % of control | dose: 400.0 mg/kg/injection, schedule: Q04DX003 (ip), vehicle: saline 96 % of control

CCN1C(=O)Cc2ccccc21
inactive: [13] 98 % of control | dose: 200.0 mg/kg/injection, schedule: Q01DX001 (ip), vehicle: Klucel (hydroxypropylcellulose) (HPC) 102 % of control | dose: 400.0 mg/kg/injection, schedule: Q01DX001 (ip), vehicle: Klucel (hydroxypropylcellulose) (HPC) 93 % of control

CCN(CC)c1ccc(SC#N)cc1
inactive: dose: 100.0 mg/kg/injection, schedule: Q01DX001 (ip), vehicle: saline 101 % of control

Cn1nc(C(N)=O)c2c(N)ncnc21
inactive: dose: 7.5 mg/kg/injection, schedule: Q04DX002 (ip), vehicle: Klucel (hydroxypropylcellulose) (HPC) 96 % of control | dose: 15.0 mg/kg/injection, schedule: Q01DX001 (ip), vehicle: carboxymethylcellulose (CMC) 98 % of control | dose: 15.0 mg/kg/injection, schedule: Q04DX002 (ip), vehicle: Klucel (hydroxypropylcellulose) (HPC) 92 % of control | dose: 30.0 mg/kg/injection, schedule: Q01DX001 (ip), vehicle: carboxymethylcellulose (CMC) 102 % of control | dose: 30.0 mg/kg/injection, schedule: Q04DX002 (ip), vehicle: Klucel (hydroxypropylcellulose) (HPC) 96 % of control

O=c1c2ccccc2nc(-c2ccccc2)n1/N=C/c1cccnc1
inactive: [4] 90 % of control | [6] 98 % of control | [15] 104 % of control

CC(=O)Nc1cccc2cc(O)ccc12
inactive: dose: 100.0 mg/kg/injection, schedule: Q04DX003 (ip), vehicle: gum acacia 98 % of control | dose: 200.0 mg/kg/injection, schedule: Q04DX003 (ip), vehicle: gum acacia 100 % of control | dose: 400.0 mg/kg/injection, schedule: Q04DX003 (ip), vehicle: gum acacia 88 % of control

Cc1cccc2c1ccc1cc(C(C)C)ccc12
inactive: [16] 106 % of control | [17] 105 % of control | [18] 98 % of control

CC1N2CC12c1ccccc1 (stereo not drawn)
inactive: dose: 10.0 mg/kg/injection, schedule: Q01DX001 (ip), vehicle: saline 103 % of control | dose: 20.0 mg/kg/injection, schedule: Q01DX001 (ip), vehicle: saline 108 % of control | dose: 40.0 mg/kg/injection, schedule: Q01DX001 (ip), vehicle: saline 103 % of control

COc1cc2c(cc1NC(C)=O)C(=O)CCCC2
inactive: dose: 50.0 mg/kg/injection, schedule: Q01DX009 (ip), vehicle: other 92 % of control | dose: 100.0 mg/kg/injection, schedule: Q01DX009 (ip), vehicle: other 95 % of control | dose: 200.0 mg/kg/injection, schedule: Q01DX009 (ip), vehicle: other 92 % of control

COc1cccc2c1C(=O)OC2=O
inactive: [16] 88 % of control | [17] 90 % of control | [18] 88 % of control

O=C1c2cccc3c([N+](=O)[O-])ccc(c23)C(=O)N1NCCO
inactive: dose: 100.0 mg/kg/injection, schedule: Q04DX003 (ip), vehicle: carboxymethylcellulose (CMC) 102 % of control | dose: 200.0 mg/kg/injection, schedule: Q04DX003 (ip), vehicle: carboxymethylcellulose (CMC) 100 % of control

Cc1cccc2cc3ccc4ccccc4c3cc12
inactive: [4] 102 % of control | dose: 100.0 mg/kg/injection, schedule: Q04DX003 (ip), vehicle: other 101 % of control | [6] 95 % of control | dose: 200.0 mg/kg/injection, schedule: Q04DX003 (ip), vehicle: other 101 % of control | [15] 101 % of control | dose: 400.0 mg/kg/injection, schedule: Q04DX003 (ip), vehicle: other 95 % of control

S=C=NCc1ccccc1
inactive: [1] 97 % of control | [2] 105 % of control

N=NC(=O)c1ccccc1Nc1c(O)[nH]c2ccccc12
inactive: [10] 89 % of control | [11] 93 % of control | [12] 93 % of control

C=CCCCCCCCCC(=O)Cl
inactive: dose: 100.0 mg/kg/injection, schedule: Q01DX009 (ip), vehicle: saline with Tween-80 89 % of control | [14] 97 % of control | dose: 200.0 mg/kg/injection, schedule: Q01DX009 (ip), vehicle: saline with Tween-80 88 % of control | dose: 200.0 mg/kg/injection, schedule: Q04DX003 (ip), vehicle: saline with Tween-80 101 % of control | dose: 400.0 mg/kg/injection, schedule: Q01DX009 (ip), vehicle: saline with Tween-80 98 % of control | dose: 400.0 mg/kg/injection, schedule: Q04DX003 (ip), vehicle: saline with Tween-80 95 % of control

CCCC[N+]12CC=C3COC(=O)C(C)(O)C(C)(O)C(C)C(=O)OC(CC1)C32 (stereo not drawn)
inactive: [3] 92 % of control | [4] 95 % of control | [6] 100 % of control
